{"source": "ChEMBL document CHEMBL3046486", "about": "“Insights into the structural requirement of 6-nitroquinolone-3-carboxylic acids as antimycobacterial agent: chemometric approaches” (2012)", "data": [{"system": "Mycobacterium tuberculosis", "experiment": "Antimycobacterial activity against Mycobacterium tuberculosis by NCCLS agar dilution method", "type": "functional", "values": [{"smiles": "O=C(O)c1cn(-c2ccc(F)cc2)c2cc(N3CCC4(CC3)OCCO4)c([N+](=O)[O-])cc2c1=O", "-logMIC": 5.176}, {"smiles": "CC(C)(C)n1cc(C(=O)O)c(=O)c2cc([N+](=O)[O-])c(N3CCSCC3)cc21", "-logMIC": 5.097}, {"smiles": "O=C(O)c1cn(C2CC2)c2cc(N3CCN(C(=O)C4COc5ccccc5O4)CC3)c([N+](=O)[O-])cc2c1=O", "note": "(stereo unspecified)", "-logMIC": 5.524}, {"smiles": "CN1CCN(c2cc3c(cc2[N+](=O)[O-])c(=O)c(C(=O)O)cn3C(C)(C)C)CC1c1ccccc1", "note": "(stereo unspecified)", "-logMIC": 4.793}, {"smiles": "O=C(O)c1cn(C2CC2)c2cc(N3CCSCC3)c([N+](=O)[O-])cc2c1=O", "-logMIC": 5.38}, {"smiles": "CC(C)(C)n1cc(C(=O)O)c(=O)c2cc([N+](=O)[O-])c(N3CCC(n4c(=O)[nH]c5cc(Cl)ccc54)CC3)cc21", "-logMIC": 5.237}, {"smiles": "CC1CN(c2cc3c(cc2[N+](=O)[O-])c(=O)c(C(=O)O)cn3C2CC2)CC(C)O1", "note": "(stereo unspecified)", "-logMIC": 5.697}, {"smiles": "CC1CN(c2cc3c(cc2[N+](=O)[O-])c(=O)c(C(=O)O)cn3-c2ccc(F)cc2)CC(C)O1", "note": "(stereo unspecified)", "-logMIC": 5.452}, {"smiles": "O=C(O)c1cn(C2CC2)c2cc(N3CCN(C(c4ccccc4)c4ccc(Cl)cc4)CC3)c([N+](=O)[O-])cc2c1=O", "note": "(stereo unspecified)", "-logMIC": 5.253}, {"smiles": "O=C(O)c1cn(C2CC2)c2cc(N3CCC(N4CCCCC4)CC3)c([N+](=O)[O-])cc2c1=O", "-logMIC": 6.367}, {"smiles": "CCN(CC)C(=O)C1CCCN(c2cc3c(cc2[N+](=O)[O-])c(=O)c(C(=O)O)cn3C(C)(C)C)C1", "note": "(stereo unspecified)", "-logMIC": 5.179}, {"smiles": "O=C(O)c1cn(-c2ccc(F)cc2)c2cc(N3CCN(Cc4ccc5c(c4)OCO5)CC3)c([N+](=O)[O-])cc2c1=O", "-logMIC": 5.545}, {"smiles": "CCN(CC)C(=O)C1CCCN(c2cc3c(cc2[N+](=O)[O-])c(=O)c(C(=O)O)cn3C2CC2)C1", "note": "(stereo unspecified)", "-logMIC": 5.466}, {"smiles": "O=C(O)c1cn(-c2ccc(F)cc2)c2cc(N3CCN(C(c4ccccc4)c4ccc(Cl)cc4)CC3)c([N+](=O)[O-])cc2c1=O", "note": "(stereo unspecified)", "-logMIC": 4.992}, {"smiles": "Cc1onc(-c2c(F)cccc2F)c1C(=O)N1CCN(c2cc3c(cc2[N+](=O)[O-])c(=O)c(C(=O)O)cn3-c2ccc(F)cc2)CC1", "-logMIC": 5.306}, {"smiles": "CC(C)(C)n1cc(C(=O)O)c(=O)c2cc([N+](=O)[O-])c(N3CCC4(CC3)OCCO4)cc21", "-logMIC": 5.128}, {"smiles": "CC(C)(C)n1cc(C(=O)O)c(=O)c2cc([N+](=O)[O-])c(N3CCN(Cc4ccc5c(c4)OCO5)CC3)cc21", "-logMIC": 5.513}, {"smiles": "O=C(O)c1cn(-c2ccc(F)cc2)c2cc(N3CCSCC3)c([N+](=O)[O-])cc2c1=O", "-logMIC": 4.837}, {"smiles": "CC(C)(C)NC(=O)C1c2ccccc2CCN1c1cc2c(cc1[N+](=O)[O-])c(=O)c(C(=O)O)cn2C1CC1", "note": "(stereo unspecified)", "-logMIC": 5.81}, {"smiles": "CC(C)(C)n1cc(C(=O)O)c(=O)c2cc([N+](=O)[O-])c(N3CCN(C(=O)c4ccco4)CC3)cc21", "-logMIC": 5.175}, {"smiles": "O=C(O)c1cn(-c2ccc(F)cc2)c2cc(N3CCC(N4CCCCC4)CC3)c([N+](=O)[O-])cc2c1=O", "-logMIC": 5.199}, {"smiles": "O=C(O)c1cn(-c2ccc(F)cc2)c2cc(N3CCN(C(=O)c4ccco4)CC3)c([N+](=O)[O-])cc2c1=O", "-logMIC": 5.209}, {"smiles": "CC(C)(C)NC(=O)C1c2ccccc2CCN1c1cc2c(cc1[N+](=O)[O-])c(=O)c(C(=O)O)cn2-c1ccc(F)cc1", "note": "(stereo unspecified)", "-logMIC": 5.252}, {"smiles": "COc1ccc(CC2C3=C(CCCC3)CCN2c2cc3c(cc2[N+](=O)[O-])c(=O)c(C(=O)O)cn3-c2ccc(F)cc2)cc1", "note": "(stereo unspecified)", "-logMIC": 5.271}, {"smiles": "O=C(O)c1cn2c(n1)CN(c1cc3c(cc1[N+](=O)[O-])c(=O)c(C(=O)O)cn3-c1ccc(F)cc1)CC2", "-logMIC": 4.92}, {"smiles": "CC(C)(C)n1cc(C(=O)O)c(=O)c2cc([N+](=O)[O-])c(N3CCN(C(c4ccccc4)c4ccc(Cl)cc4)CC3)cc21", "note": "(stereo unspecified)", "-logMIC": 5.264}, {"smiles": "O=C(O)c1cn(-c2ccc(F)cc2)c2cc(N3CCC(n4c(=O)[nH]c5cc(Cl)ccc54)CC3)c([N+](=O)[O-])cc2c1=O", "-logMIC": 5.266}, {"smiles": "CC(C)(C)n1cc(C(=O)O)c(=O)c2cc([N+](=O)[O-])c(N3CCn4cc(C(=O)O)nc4C3)cc21", "-logMIC": 5.163}, {"smiles": "O=C(O)c1cn(-c2ccc(F)cc2)c2cc(N3CCN(C(=O)C4COc5ccccc5O4)CC3)c([N+](=O)[O-])cc2c1=O", "note": "(stereo unspecified)", "-logMIC": 5.565}, {"smiles": "O=C(O)c1cn(C2CC2)c2cc(N3CCC(O)(c4ccc(Cl)cc4)CC3)c([N+](=O)[O-])cc2c1=O", "-logMIC": 6.092}, {"smiles": "CCN(CC)C(=O)C1CCCN(c2cc3c(cc2[N+](=O)[O-])c(=O)c(C(=O)O)cn3-c2ccc(F)cc2)C1", "note": "(stereo unspecified)", "-logMIC": 5.213}]}]}
